Assay results published in patent US9034921B2, “Diphenylmethane derivatives as SGLT2 inhibitors” (GREEN CROSS CORPORATION, priority 2011, dated 2015).

biological target: human SGLT2 (Homo sapiens (Human), UniProt P31639); experiment: Inhibitory effects on human SGLT2 activities (14C-AMG uptake, sodium-dependent glucose transport assay); assay type: cell-based; settings: CHO cells stably expressing hSGLT2, 37° C., 2 h, single determinations
In short: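 CHO cells stably expressing hSGLT2 were preincubated 10 min at 37 °C in choline (Na+-free) buffer, then exposed 2 h at 37 °C to compound in Na+ uptake buffer with 8 μM 14C-AMG and 1 mM unlabeled AMG. Radioactivity was scintillation counted; IC50 came from nonlinear regression.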

Chain of human SGLT2 (P31639 whole entry): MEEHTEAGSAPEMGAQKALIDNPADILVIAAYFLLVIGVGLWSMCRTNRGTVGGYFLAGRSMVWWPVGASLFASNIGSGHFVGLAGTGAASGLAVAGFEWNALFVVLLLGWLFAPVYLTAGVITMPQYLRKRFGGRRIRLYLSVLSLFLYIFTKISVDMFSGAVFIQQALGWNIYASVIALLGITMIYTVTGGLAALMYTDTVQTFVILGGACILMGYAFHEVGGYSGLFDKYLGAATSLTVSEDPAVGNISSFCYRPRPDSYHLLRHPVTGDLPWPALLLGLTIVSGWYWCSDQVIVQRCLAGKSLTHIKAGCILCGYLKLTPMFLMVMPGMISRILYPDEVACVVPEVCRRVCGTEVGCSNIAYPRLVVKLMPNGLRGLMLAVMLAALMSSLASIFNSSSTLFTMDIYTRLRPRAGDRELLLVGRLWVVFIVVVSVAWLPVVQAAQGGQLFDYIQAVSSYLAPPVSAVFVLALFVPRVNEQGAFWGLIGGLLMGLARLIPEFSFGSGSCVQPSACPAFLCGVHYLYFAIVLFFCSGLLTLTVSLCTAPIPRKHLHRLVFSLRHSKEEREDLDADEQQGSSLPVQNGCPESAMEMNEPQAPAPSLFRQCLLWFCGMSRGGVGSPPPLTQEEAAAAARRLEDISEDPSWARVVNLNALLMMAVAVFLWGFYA

Row | Compound | IC50 [nM]
1 | COc1ccc(Cc2cc([C@@H]3O[C@H](CO)[C@@H](O)[C@H](O)[C@H]3O)c3c(c2Cl)OCC3)s1 [Example E207, (2S,3R,4R,5S,6R)-2-(7-Chloro-6-((5-methoxythiophen-2-yl)methyl)-2,3-dihydrobenzofuran-4-yl)-6-(hydroxymethyl)tetrahydro-2H-pyran-3,4,5-triol] | 3.75
2 | CCN(CC)c1ccc(Cc2cc([C@@H]3O[C@H](CO)[C@@H](O)[C@H](O)[C@H]3O)ccc2Cl)cc1 [Example E210, (2S,3R,4R,5S,6R)-2-(4-Chloro-3-(4-(diethylamino)benzyl)phenyl)-6-(hydroxymethyl)tetrahydro-2H-pyran-3,4,5-triol] | 89.3
3 | OC[C@H]1O[C@@H](c2ccc(Cl)c(Cc3ccc(N4CCOCC4)cc3)c2)[C@H](O)[C@@H](O)[C@@H]1O [Example E211, (2S,3R,4R,5S,6R)-2-(4-Chloro-3-(4-morpholinobenzyl)phenyl)-6-(hydroxymethyl)tetrahydro-2H-pyran-3,4,5-triol] | 9.08
4 | CCOc1ccc(Cc2cc([C@@H]3O[C@H](CO)[C@@H](O)[C@H](O)[C@H]3O)c3c(c2Cl)N(C)CCO3)cc1 [Example E213, (2S,3R,4R,5S,6R)-2-(5-Chloro-6-(4-ethoxybenzyl)-4-methyl-3,4-dihydro-2H-benzo[b][1,4]oxazin-8-yl)-6-(hydroxymethyl)tetrahydro-2H-pyran-3,4,5-triol] | 6.12
5 | CCc1ccc(Cc2cc([C@@H]3O[C@H](CO)[C@@H](O)[C@H](O)[C@H]3O)c3c(c2Cl)NCCO3)cc1 [Example E214, (2S,3R,4R,5S,6R)-2-(5-Chloro-6-(4-ethylbenzyl)-3,4-dihydro-2H-benzo[b][1,4]oxazin-8-yl)-6-(hydroxymethyl)tetrahydro-2H-pyran-3,4,5-triol] | 3.17
6 | CCc1ccc(Cc2cc([C@@H]3O[C@H](CO)[C@@H](O)[C@H](O)[C@H]3O)c3c(c2Cl)C(C)CO3)cc1 (stereo partly drawn) [Example E215, (2S,3R,4R,5S,6R)-2-(4-Chloro-5-(4-ethylbenzyl)-3-methyl-2,3-dihydrobenzofuran-7-yl)-6-(hydroxymethyl)tetrahydro-2H-pyran-3,4,5-triol] | 0.891
7 | COc1ccc(Cc2cc([C@@H]3O[C@H](CO)[C@@H](O)[C@H](O)[C@H]3O)c3c(c2Cl)C(C)CO3)cc1 (stereo partly drawn) [Example E216, (2S,3R,4R,5S,6R)-2-(4-Chloro-5-(4-methoxybenzyl)-3-methyl-2,3-dihydrobenzofuran-7-yl)-6-(hydroxymethyl)tetrahydro-2H-pyran-3,4,5-triol] | 1.22
8 | CCc1ccc(Cc2cc([C@@H]3O[C@H](CO)[C@@H](O)[C@H](O)[C@H]3O)c3c(c2Cl)C(C)(C)CO3)cc1 [Example E217, (2S,3R,4R,5S,6R)-2-(4-Chloro-5-(4-ethylbenzyl)-3,3-dimethyl-2,3-dihydrobenzofuran-7-yl)-6-(hydroxymethyl)tetrahydro-2H-pyran-3,4,5-triol] | 1.76
9 | COc1ccc(Cc2cc([C@@H]3O[C@H](CO)[C@@H](O)[C@H](O)[C@H]3O)c3c(c2Cl)C(C)(C)CO3)cc1 [Example E218, (2S,3R,4R,5S,6R)-2-(4-Chloro-5-(4-methoxybenzyl)-3,3-dimethyl-2,3-dihydrobenzofuran-7-yl)-6-(hydroxymethyl)tetrahydro-2H-pyran-3,4,5-triol] | 4.66
10 | COc1ccc(Cc2cc([C@@H]3O[C@H](CO)[C@@H](O)[C@H](O)[C@H]3O)c3c(c2Cl)CC(C)(C)O3)cc1 [Example E219, (2S,3R,4R,5S,6R)-2-(4-Chloro-5-(4-methoxybenzyl)-2,2-dimethyl-2,3-dihydrobenzofuran-7-yl)-6-(hydroxymethyl)tetrahydro-2H-pyran-3,4,5-triol] | 1.61
11 | CCOc1ccc(Cc2cc([C@@H]3O[C@H](CO)[C@@H](O)[C@H](O)[C@H]3O)c3c(c2Cl)CC(C)(C)O3)cc1 [Example E220, (2S,3R,4R,5S,6R)-2-(4-Chloro-5-(4-ethoxybenzyl)-2,2-dimethyl-2,3-dihydrobenzofuran-7-yl)-6-(hydroxymethyl)tetrahydro-2H-pyran-3,4,5-triol] | 1.27
12 | OC[C@H]1O[C@@H](c2ccc(Cl)c(Cc3ccc(N4CCCC4)cc3)c2)[C@H](O)[C@@H](O)[C@@H]1O [Example E221] | 2.17
13 | CCOc1ccc(Cc2cc([C@@H]3O[C@H](CO)[C@@H](O)[C@H](O)[C@H]3O)c3c(c2Cl)C(C)CO3)cc1 (stereo partly drawn) [Example E222, (2S,3R,4R,5S,6R)-2-(4-Chloro-5-(4-ethoxybenzyl)-3-methyl-2,3-dihydrobenzofuran-7-yl)-6-(hydroxymethyl)-tetrahydro-2H-pyran-3,4,5-triol] | 1.99
14 | CCOc1ccc(Cc2cc([C@@H]3O[C@H](CO)[C@@H](O)[C@H](O)[C@H]3O)c3c(c2Cl)C(C)(C)CO3)cc1 [Example E223, (2S,3R,4R,5S,6R)-2-(4-Chloro-5-(4-ethoxybenzyl)-3,3-dimethyl-2,3-dihydrobenzofuran-7-yl)-6-(hydroxymethyl)-tetrahydro-2H-pyran-3,4,5-triol] | 4.16
15 | CCOc1ccc(Cc2cc([C@@H]3O[C@H](CO)[C@@H](O)[C@H](O)[C@H]3O)c3c(c2Cl)OCC3C)cc1 (stereo partly drawn) [Example E224, (2S,3R,4R,5S,6R)-2-(7-Chloro-6-(4-ethoxybenzyl)-3-methyl-2,3-dihydrobenzofuran-4-yl)-6-(hydroxymethyl)-tetrahydro-2H-pyran-3,4,5-triol] | 0.867
16 | CCOc1ccc(Cc2cc([C@@H]3O[C@H](CO)[C@@H](O)[C@H](O)[C@H]3O)c3c(c2Cl)OCC3(C)C)cc1 [Example E225, (2S,3R,4R,5S,6R)-2-(7-Chloro-6-(4-ethoxybenzyl)-3,3-dimethyl-2,3-dihydrobenzofuran-4-yl)-6-(hydroxymethyl)-tetrahydro-2H-pyran-3,4,5-triol] | 1.82
17 | CCOc1ccc(Cc2cc([C@@H]3O[C@H](CO)[C@@H](O)[C@H](O)[C@H]3O)c3c(c2Cl)OCC3=O)cc1 [Example E226] | 10.5
18 | CCOc1ccc(Cc2cc([C@@H]3O[C@H](CO)[C@@H](O)[C@H](O)[C@H]3O)c3c(c2Cl)OCC3OC)cc1 (stereo partly drawn) [Example E227, (2S,3R,4R,5S,6R)-2-(7-Chloro-6-(4-ethoxybenzyl)-3-methoxy-2,3-dihydrobenzofuran-4-yl)-6-(hydroxymethyl)-tetrahydro-2H-pyran-3,4,5-triol] | 8.99
19 | CCCc1c(Cc2ccc(OCC)cc2)cc([C@@H]2O[C@H](CO)[C@@H](O)[C@H](O)[C@H]2O)c2c1OCC2 [Example E229, (2S,3R,4R,5S,6R)-2-(6-(4-Ethoxybenzyl)-7-propyl-2,3-dihydrobenzofuran-4-yl)-6-(hydroxymethyl)-tetrahydro-2H-pyran-3,4,5-triol] | 5.6
20 | OC[C@H]1O[C@@H](c2cc(Cc3ccc4c(c3)NCCC4)c(Cl)c3c2CCO3)[C@H](O)[C@@H](O)[C@@H]1O [Example E230, (2S,3R,4R,5S,6R)-2-(7-Chloro-6-((1,2,3,4-tetrahydroquinolin-7-yl)methyl)-2,3-dihydrobenzofuran-4-yl)-6-(hydroxymethyl)-tetrahydro-2H-pyran-3,4,5-triol] | 2.49
21 | OC[C@H]1O[C@@H](c2cc(Cc3ccc4c(c3)NCCO4)c(Cl)c3c2CCO3)[C@H](O)[C@@H](O)[C@@H]1O [Example E231, (2S,3R,4R,5S,6R)-2-(7-Chloro-6-((3,4-dihydro-2H-benzo[b][1,4]oxazin-6-yl)methyl)-2,3-dihydrobenzofuran-4-yl)-6-(hydroxymethyl)-tetrahydro-2H-pyran-3,4,5-triol] | 5.56
